Test results reported in patent US9630958B2, “Triazine compounds” (Sphaera Pharma Pte. Ltd., priority 2012, dated 2017).

What was measured:
Recombinant mTOR (FRAP1) = biological target: T1, Recombinant mTOR (FRAP1) (Homo sapiens, UniProt P42345); assay: mTOR in vitro kinase assay (TR-FRET, phosphorylation of GFP-4E-BP1); type: biochemical; conditions: for inhibition at 1 µM: 1 uM compound, read-out: mTOR % Inhib@1 uM; for IC50: 8 μM ATP, 400 nM GFP-4E-BP1
T1 construct: purchased Invitrogen
Summary of the method: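 Recombinant human mTOR with GFP-4E-BP1 substrate at 400 nM and 8 μM ATP, 1 h at room temperature, then quenched with 10 mM EDTA plus 2 nM Tb-anti-p4E-BP1 (pThr46) for 1 h. TR-FRET 520/486 nm ratio fitted against inhibitor concentration by four-parameter sigmoidal regression.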

[1] = biological target: T2, PI3 Kinase alpha (p110 alpha/p85 alpha) (Homo sapiens, UniProt P42336); assay: PI3K TR-FRET assay (Transcreener ADP2); type: biochemical; conditions: for inhibition at 1 µM: 1 uM compound, read-out: PI3K % Inhib@1 uM; for IC50: PI3K alpha, 1 μM ATP, 50 μM PIP2
T2 construct: purchased Invitrogen
Summary of the method: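 p110α/p85α with diC8 PIP2 (50 μM) and 1 μM ATP in 50 mM HEPES pH 7.4, MgCl2, CHAPS, DTT, EGTA; 1 h at room temperature. ADP detected by Transcreener ADP2 TR-FRET (665/615 nm ratio), converted to product via ADP-ATP standard curve; IC50 from four-parameter fit of % inhibition.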

T1 sequence (P42345 1360-2549 limits assumed): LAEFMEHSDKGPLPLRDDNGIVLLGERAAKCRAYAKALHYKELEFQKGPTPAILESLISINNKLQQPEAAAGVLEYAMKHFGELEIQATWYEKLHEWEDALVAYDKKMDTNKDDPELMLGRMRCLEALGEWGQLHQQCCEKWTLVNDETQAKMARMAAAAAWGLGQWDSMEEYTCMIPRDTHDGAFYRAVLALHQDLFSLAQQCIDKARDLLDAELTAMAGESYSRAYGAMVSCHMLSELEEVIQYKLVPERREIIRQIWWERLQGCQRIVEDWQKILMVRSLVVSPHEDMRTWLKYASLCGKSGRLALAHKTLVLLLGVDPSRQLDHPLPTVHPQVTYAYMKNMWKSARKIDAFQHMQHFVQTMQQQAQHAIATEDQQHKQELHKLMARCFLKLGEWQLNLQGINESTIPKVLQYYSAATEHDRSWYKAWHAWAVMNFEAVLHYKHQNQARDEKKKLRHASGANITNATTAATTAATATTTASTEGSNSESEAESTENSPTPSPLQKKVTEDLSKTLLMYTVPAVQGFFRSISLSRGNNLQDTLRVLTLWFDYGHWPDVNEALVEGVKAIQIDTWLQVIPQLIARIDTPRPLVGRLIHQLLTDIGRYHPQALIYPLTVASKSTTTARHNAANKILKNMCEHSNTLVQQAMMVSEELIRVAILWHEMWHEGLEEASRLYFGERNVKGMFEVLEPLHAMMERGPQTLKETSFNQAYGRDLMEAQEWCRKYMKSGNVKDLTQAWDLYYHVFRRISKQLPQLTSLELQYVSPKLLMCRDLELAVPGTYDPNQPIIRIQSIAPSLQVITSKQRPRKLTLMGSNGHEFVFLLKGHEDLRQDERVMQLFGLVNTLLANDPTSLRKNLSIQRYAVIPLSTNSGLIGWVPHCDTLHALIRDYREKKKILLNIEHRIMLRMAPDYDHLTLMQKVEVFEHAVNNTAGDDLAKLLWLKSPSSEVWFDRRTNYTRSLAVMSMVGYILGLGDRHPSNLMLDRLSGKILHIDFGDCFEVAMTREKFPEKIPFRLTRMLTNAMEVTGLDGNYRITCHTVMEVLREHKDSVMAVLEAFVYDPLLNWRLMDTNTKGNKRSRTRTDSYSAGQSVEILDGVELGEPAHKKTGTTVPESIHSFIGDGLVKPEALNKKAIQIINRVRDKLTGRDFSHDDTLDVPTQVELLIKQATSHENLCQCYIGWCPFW
T2 sequence (P42336 whole entry): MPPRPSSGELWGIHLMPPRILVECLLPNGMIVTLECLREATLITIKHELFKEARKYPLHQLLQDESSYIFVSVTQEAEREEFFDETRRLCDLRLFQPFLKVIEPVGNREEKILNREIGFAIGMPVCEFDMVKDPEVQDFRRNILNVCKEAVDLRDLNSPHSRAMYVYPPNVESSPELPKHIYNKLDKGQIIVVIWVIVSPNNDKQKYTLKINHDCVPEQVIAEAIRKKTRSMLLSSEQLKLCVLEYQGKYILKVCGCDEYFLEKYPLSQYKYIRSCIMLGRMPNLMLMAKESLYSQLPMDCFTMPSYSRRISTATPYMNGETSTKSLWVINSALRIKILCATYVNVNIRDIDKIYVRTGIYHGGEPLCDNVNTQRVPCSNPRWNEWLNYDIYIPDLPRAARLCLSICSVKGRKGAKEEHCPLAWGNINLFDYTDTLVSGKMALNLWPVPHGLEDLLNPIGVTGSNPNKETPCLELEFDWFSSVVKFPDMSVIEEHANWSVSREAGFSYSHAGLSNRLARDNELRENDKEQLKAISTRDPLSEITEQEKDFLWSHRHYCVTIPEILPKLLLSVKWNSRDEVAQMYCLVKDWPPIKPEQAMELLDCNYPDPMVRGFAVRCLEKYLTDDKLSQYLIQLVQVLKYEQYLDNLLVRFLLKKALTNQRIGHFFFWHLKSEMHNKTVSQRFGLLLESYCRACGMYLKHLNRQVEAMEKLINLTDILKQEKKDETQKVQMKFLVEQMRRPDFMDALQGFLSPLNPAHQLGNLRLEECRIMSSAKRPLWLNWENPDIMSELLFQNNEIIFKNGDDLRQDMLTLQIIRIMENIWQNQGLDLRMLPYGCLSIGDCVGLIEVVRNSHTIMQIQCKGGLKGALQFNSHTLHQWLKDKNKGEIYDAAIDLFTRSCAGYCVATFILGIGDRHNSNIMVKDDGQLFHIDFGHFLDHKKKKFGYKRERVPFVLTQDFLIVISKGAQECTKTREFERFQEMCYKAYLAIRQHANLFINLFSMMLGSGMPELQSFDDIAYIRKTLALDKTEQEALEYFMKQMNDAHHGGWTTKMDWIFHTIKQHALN
T2 sequence (P27986 whole entry partner): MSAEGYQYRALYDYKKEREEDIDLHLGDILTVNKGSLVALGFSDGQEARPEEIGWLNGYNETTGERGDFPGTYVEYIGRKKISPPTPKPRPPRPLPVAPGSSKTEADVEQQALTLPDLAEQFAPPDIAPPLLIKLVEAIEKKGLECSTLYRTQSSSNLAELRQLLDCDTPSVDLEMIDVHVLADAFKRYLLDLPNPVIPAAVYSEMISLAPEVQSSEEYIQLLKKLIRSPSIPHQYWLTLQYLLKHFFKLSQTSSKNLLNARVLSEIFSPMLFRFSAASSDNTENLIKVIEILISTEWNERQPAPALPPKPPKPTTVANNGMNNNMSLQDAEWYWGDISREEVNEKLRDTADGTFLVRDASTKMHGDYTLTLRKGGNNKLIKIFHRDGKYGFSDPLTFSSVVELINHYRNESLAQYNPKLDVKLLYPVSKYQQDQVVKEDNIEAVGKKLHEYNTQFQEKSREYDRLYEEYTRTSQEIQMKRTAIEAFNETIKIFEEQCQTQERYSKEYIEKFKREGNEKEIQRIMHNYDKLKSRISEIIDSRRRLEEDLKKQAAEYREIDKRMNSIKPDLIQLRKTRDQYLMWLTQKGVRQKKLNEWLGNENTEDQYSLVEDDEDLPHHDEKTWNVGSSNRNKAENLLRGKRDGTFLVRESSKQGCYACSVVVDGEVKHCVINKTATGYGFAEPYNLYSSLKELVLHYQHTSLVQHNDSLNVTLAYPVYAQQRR

For `CN(C)C(=O)c1ccc(Oc2nc(-c3cnc(N)s3)nc(N3CCS(=O)(=O)CC3)n2)cc1` [Compound 10123], the inhibition at 1 µM (Recombinant mTOR (FRAP1)) was less than 50% and the inhibition at 1 µM [1] was less than 50%.
Work on `CN(C)C(=O)c1ccc(Oc2nc(-c3cnc(N)[nH]3)nc(N3CCOCC3)n2)cc1` [Compound 10124, 4-(4-(2-amino-1H-imidazol-5-yl)-6-morpholino-1,3,5-triazin-2-yloxy)-N,N-dimethylbenzamide] yielded an inhibition at 1 µM (Recombinant mTOR (FRAP1)) of less than 50% and an inhibition at 1 µM [1] of less than 50%.
`C[C@H]1COCCN1c1nc(Oc2ccc(C(=O)N(C)C)cc2)nc(C2=CC=C(N)N(O)C2)n1` [Compound 10125] was tested, and the inhibition at 1 µM (Recombinant mTOR (FRAP1)) was less than 50% and the inhibition at 1 µM [1] was less than 50%.
With `C[C@H]1COCCN1c1nc(Oc2ccc(C(=O)N(C)C)cc2)nc(-c2cnc(N)nc2)n1` [Compound 10126, 4-(4-(2-aminopyrimidin-5-yl)-6-((S)-3-methylmorpholino)-1,3,5-triazin-2-yloxy)-N,N-dimethylbenzamide] the inhibition at 1 µM (Recombinant mTOR (FRAP1)) was greater than 50%, the IC50 (Recombinant mTOR (FRAP1)) was less than 1 µM and the IC50 [1] was less than 1 µM.
`C[C@H]1CN(c2nc(Oc3ccc(C(=O)N(C)C)cc3)nc(-c3cnc(N)s3)n2)CCO1` [Compound 10127, 4-(4-(2-aminothiazol-5-yl)-6-((S)-2-methylmorpholino)-1,3,5-triazin-2-yloxy)-N,N-dimethylbenzamide] was tested, and the inhibition at 1 µM (Recombinant mTOR (FRAP1)) was greater than 50%, the IC50 (Recombinant mTOR (FRAP1)) was less than 1 µM and the inhibition at 1 µM [1] was greater than 50%. The IC50 [1] was less than 1 µM.
Work on `CN(C)C(=O)c1ccc(Oc2nc(-c3cnc(N)s3)nc(N3CCOCC3(C)C)n2)cc1` [Compound 10128, 4-(4-(2-aminothiazol-5-yl)-6-(3,3-dimethylmorpholino)-1,3,5-triazin-2-yloxy)-N,N-dimethylbenzamide] yielded an inhibition at 1 µM (Recombinant mTOR (FRAP1)) greater than 50%, an IC50 (Recombinant mTOR (FRAP1)) of less than 1 µM and an inhibition at 1 µM [1] greater than 50%. The IC50 [1] was less than 1 µM.
In the case of `CN(C)C(=O)c1ccc(Oc2nc(-c3cnc(N)s3)nc(N3CCO[C@@H]4CCCC[C@H]43)n2)cc1` [Compound 10131, 4-(4-(2-aminothiazol-5-yl)-6-((4aR,8aR)-octahydrobenzo[b][1,4]oxazin-4-yl)-1,3,5-triazin-2-yloxy)-N,N-dimethylbenzamide], the inhibition at 1 µM (Recombinant mTOR (FRAP1)) is reported as less than 50% and the inhibition at 1 µM [1] is reported as less than 50%.
Compound `CN(C)C(=O)c1ccc(Oc2nc(-c3cnc(N)s3)nc(N3CCO[C@@H]4CCC[C@H]43)n2)cc1` [Compound 10132, 4-(4-(2-aminothiazol-5-yl)-6-((4aR,7aR)-hexahydrocyclopenta[b][1,4]oxazin-4(4aH)-yl)-1,3,5-triazin-2-yloxy)-N,N-dimethylbenzamide] has an inhibition at 1 µM (Recombinant mTOR (FRAP1)) greater than 50%, an IC50 (Recombinant mTOR (FRAP1)) of less than 1 µM and an inhibition at 1 µM [1] of less than 50%. The IC50 [1] was less than 1 µM.
Work on `CNC(=O)Nc1ncc(-c2nc(NC)nc(N3CCOC[C@@H]3C)n2)s1` [Compound 10135, 1-methyl-3-(5-(4-(methylamino)-6-((S)-3-methylmorpholino)-1,3,5-triazin-2-yl)thiazol-2-yl)urea] yielded an inhibition at 1 µM (Recombinant mTOR (FRAP1)) of less than 50% and an inhibition at 1 µM [1] of less than 50%.
`CN(C)C(=O)c1ccc(Oc2nc(-c3ccc4[nH]ncc4c3)nc(N3C4CCC3COC4)n2)c(F)c1` [Compound 10136, 4-(4-(3-oxa-8-aza-bicyclo[3.2.1]octan-8-yl)-6-(1H-indazol-5-yl)-1,3,5-triazin-2-yloxy)-3-fluoro-N,N-dimethylbenzamide] was tested, and the inhibition at 1 µM (Recombinant mTOR (FRAP1)) was greater than 50%, the IC50 (Recombinant mTOR (FRAP1)) was less than 1 µM and the inhibition at 1 µM [1] was less than 50%. For the same compound, the IC50 [1] was greater than 10 µM.
`C[C@H]1COCCN1c1nc(OC2CCN(C(=O)N(C)C)CC2)nc(-c2cnc(N)s2)n1` [Compound 10137, 4-(4-(2-aminothiazol-5-yl)-6-((S)-3-methylmorpholino)-1,3,5-triazin-2-yloxy)-N,N-dimethylpiperidine-1-carboxamide] gave an inhibition at 1 µM (Recombinant mTOR (FRAP1)) greater than 50%, an IC50 (Recombinant mTOR (FRAP1)) of less than 1 µM and an IC50 [1] of less than 1 µM.
`C[C@H]1COCCN1c1nc(OC2CCN(C(=O)N(C)C)C2)nc(-c2cnc(N)s2)n1` (stereo partly drawn) [Compound 10138, 3-(4-(2-aminothiazol-5-yl)-6-((S)-3-methylmorpholino)-1,3,5-triazin-2-yloxy)-N,N-dimethylpyrrolidine-1-carboxamide] showed an inhibition at 1 µM (Recombinant mTOR (FRAP1)) of less than 50%, an IC50 (Recombinant mTOR (FRAP1)) greater than 1 µM and an inhibition at 1 µM [1] greater than 50%. The IC50 [1] was less than 1 µM.
Work on `C[C@H]1COCCN1c1nc(O[C@H]2CC[C@H](C(=O)N(C)C)CC2)nc(-c2cnc(N)s2)n1` [Compound 10139, (1S,4r)-4-(4-(2-aminothiazol-5-yl)-6-((S)-3-methylmorpholino)-1,3,5-triazin-2-yloxy)-N,N-dimethylcyclohexanecarboxamide] yielded an inhibition at 1 µM (Recombinant mTOR (FRAP1)) greater than 50%, an IC50 (Recombinant mTOR (FRAP1)) of less than 1 µM and an IC50 [1] of less than 1 µM.
With `CN(C)C(=O)c1ccc(Oc2nc(-c3ccc4[nH]ncc4c3)nc(N3CC4CCC(C3)O4)n2)c(F)c1` [Compound 10140, 4-(4-(8-oxa-3-aza-bicyclo[3.2.1]octan-3-yl)-6-(1H-indazol-5-yl)-1,3,5-triazin-2-yloxy)-3-fluoro-N,N-dimethylbenzamide] the inhibition at 1 µM (Recombinant mTOR (FRAP1)) was greater than 50%, the IC50 (Recombinant mTOR (FRAP1)) was less than 1 µM and the IC50 [1] was greater than 10 µM.
`C[C@H]1COCCN1c1nc(OC2CCC(C(=O)N(C)C)CC2)nc(-c2ccc3[nH]ccc3c2)n1` (stereo partly drawn) [Compound 10141, (1R,4s)-4-(4-(1H-indol-5-yl)-6-((S)-3-methylmorpholino)-1,3,5-triazin-2-yloxy)-N,N-dimethylcyclohexanecarboxamide] gave an IC50 (Recombinant mTOR (FRAP1)) of less than 1 µM, an inhibition at 1 µM [1] of less than 50% and an IC50 [1] greater than 10 µM.
In the case of `C[C@@H]1OCCN(c2nc(Oc3ccc(C(=O)N(C)C)cc3)nc(-c3cnc(N)s3)n2)[C@H]1C` [Compound 10142, 4-(4-(2-aminothiazol-5-yl)-6-((2S,3S)-2,3-dimethylmorpholino)-1,3,5-triazin-2-yloxy)-N,N-dimethylbenzamide], the IC50 (Recombinant mTOR (FRAP1)) is reported as less than 1 µM and the IC50 [1] is reported as greater than 10 µM.
`C[C@H]1COCCN1c1nc(Oc2ccc(C(=O)N(C)C)cc2)nc(-c2cnc(N(C)C)s2)n1` [Compound 10143, 4-(4-(2-(dimethylamino)thiazol-5-yl)-6-((S)-3-methylmorpholino)-1,3,5-triazin-2-yloxy)-N,N-dimethylbenzamide] gave an IC50 (Recombinant mTOR (FRAP1)) greater than 1 µM, an inhibition at 1 µM [1] of less than 50% and an IC50 [1] greater than 1 µM.
Compound `CN(C)C(=O)[C@H]1CC[C@H](Oc2nc(-c3cnc(N)s3)nc(N3CCO[C@H]4CCC[C@@H]43)n2)CC1` [Compound 10145, (1S,4r)-4-(4-(2-aminothiazol-5-yl)-6-((4aS,7aS)-hexahydrocyclopenta[b][1,4]oxazin-4(4aH)-yl)-1,3,5-triazin-2-yloxy)-N,N-dimethylcyclohexanecarboxamide] has an IC50 (Recombinant mTOR (FRAP1)) greater than 1 µM and an inhibition at 1 µM [1] of less than 50%.
Compound `CN(C)C(=O)c1ccc(Oc2nc(-c3cnc(N)s3)nc(N3CCO[C@H]4CCC[C@@H]43)n2)c(F)c1` [Compound 10146, 4-(4-(2-aminothiazol-5-yl)-6-((4aS,7aS)-hexahydrocyclopenta[b][1,4]oxazin-4(4aH)-yl)-1,3,5-triazin-2-yloxy)-3-fluoro-N,N-dimethylbenzamide] has an IC50 (Recombinant mTOR (FRAP1)) of less than 1 µM and an IC50 [1] of less than 1 µM.
Compound `C[C@H]1COCCN1c1nc(OC2CCC(C(=O)N(C)C)CC2)nc(-c2cccc(CO)c2)n1` (stereo partly drawn) [Compound 10147, (1R,4s)-4-(4-(3-(hydroxymethyl)phenyl)-6-((S)-3-methylmorpholino)-1,3,5-triazin-2-yloxy)-N,N-dimethylcyclohexanecarboxamide] has an IC50 (Recombinant mTOR (FRAP1)) greater than 1 µM and an inhibition at 1 µM [1] greater than 50%.
`CN(C)C(=O)[C@H]1CC[C@H](Oc2nc(-c3ccc(N)nc3)nc(N3CCO[C@@H]4CCC[C@H]43)n2)CC1` [Compound 10148, (1R,4r)-4-(4-(6-aminopyridin-3-yl)-6-((4aR,7aR)-hexahydrocyclopenta[b][1,4]oxazin-4(4aH)-yl)-1,3,5-triazin-2-yloxy)-N,N-dimethylcyclohexanecarboxamide] gave an IC50 (Recombinant mTOR (FRAP1)) of less than 1 µM and an inhibition at 1 µM [1] of less than 50%.
`CN(C)C(=O)C1CCC(Oc2nc(-c3ccc4[nH]ccc4c3)nc(N3CCO[C@@H]4CCC[C@H]43)n2)CC1` (stereo partly drawn) [Compound 10150, (1S,4s)-4-(4-((4aR,7aR)-hexahydrocyclopenta[b][1,4]oxazin-4(4aH)-yl)-6-(1H-indol-5-yl)-1,3,5-triazin-2-yloxy)-N,N-dimethylcyclohexanecarboxamide] was tested, and the IC50 (Recombinant mTOR (FRAP1)) was greater than 10 µM and the inhibition at 1 µM [1] was less than 50%.
Compound `C[C@H]1CN(c2nc(Oc3ccc(C(=O)N(C)C)cc3F)nc(-c3cnc(N)s3)n2)[C@@H](C)CO1` [Compound 10153, 4-(4-(2-aminothiazol-5-yl)-6-((2S,5S)-2,5-dimethylmorpholino)-1,3,5-triazin-2-yloxy)-3-fluoro-N,N-dimethylbenzamide] has an IC50 (Recombinant mTOR (FRAP1)) of less than 1 µM, an inhibition at 1 µM [1] of less than 50% and an IC50 [1] of less than 1 µM.
`CN(C)C(=O)c1ccc(Oc2nc(-c3cnc(N)s3)nc(N3CC4CCC(C3)O4)n2)c(F)c1` [Compound 10154, 4-(4-(8-oxa-3-aza-bicyclo[3.2.1]octan-3-yl)-6-(2-aminothiazol-5-yl)-1,3,5-triazin-2-yloxy)-3-fluoro-N,N-dimethylbenzamide] gave an IC50 (Recombinant mTOR (FRAP1)) of less than 1 µM, an inhibition at 1 µM [1] of less than 50% and an IC50 [1] greater than 1 µM.
`C[C@@H]1COCCN1c1nc(Oc2ccc(C(=O)N(C)C)cc2F)nc(-c2cnc(N)s2)n1` [Compound 10156, 4-(4-(2-aminothiazol-5-yl)-6-((R)-3-methylmorpholino)-1,3,5-triazin-2-yloxy)-3-fluoro-N,N-dimethylbenzamide] showed an IC50 (Recombinant mTOR (FRAP1)) of less than 1 µM, an inhibition at 1 µM [1] of less than 50% and an IC50 [1] of 3 µM.
`C[C@H]1COCCN1c1nc(Oc2ccc(C(=O)N(C)C)cc2)nc(-c2cnc3[nH]ccc3c2)n1` [Compound 10157, 4-(4-((S)-3-methylmorpholino)-6-(1H-pyrrolo[2,3-b]pyridin-5-yl)-1,3,5-triazin-2-yloxy)-N,N-dimethylbenzamide] gave an IC50 (Recombinant mTOR (FRAP1)) of less than 1 µM and an IC50 [1] of less than 1 µM.
